These results are taken from US20150274703A1, “1H-Indole-3-Carboxamide Derivatives And Use Thereof As P2Y12 Antagonists” (SANOFI, priority 2012, published 2015).

Data set [1] concerns platelet aggregation (rat blood, platelet-rich plasma). The experiment in a line: Inhibition of platelet aggregation in vitro (rat blood). The class given is cell-based. The following applies: 0.1 h, Sprague-Dawley rat PRP, area under the curve of absorbance over 6 minutes. The procedure: Inhibition of Platelet Aggregation In Vitro (Rat Blood) Blood is taken from male rats of the Sprague-Dawley strain, weighing 250-300 g. The sample is taken on 3.8% sodium citrate (1 volume for 9 blood volumes) by abdominal aortic puncture after the animal has been anesthetized with sodium pentobarbital. The platelet-rich plasma (PRP) is obtained by centrifugation of the blood at 300 g for 5 minutes, and the platelet aggregation measurements are carried out as described above. The results are calculated using the area under the curve of absorbance measured for 6 minutes, and expressed by the percentage inhibition. The platelet aggregation measurements are carried out at 37° C. in glass tubes (Chrono-Log aggregometer—Kordia). 4 μl of the test compound (solution 100 times more concentrated than the desired final concentration, in DMSO) are mixed with 392 μl of fresh PRP, and incubated for 1 minute with stirring. Then, 4 μl of a solution of ADP at 250 μM are added to the mixture. The aggregation measurements are monitored for 6 to 8 minutes, with constant stirring, by recording the variations in the optical density according to the method of G.V.R. BORN (Born Nature (1962) 194, 927).

Data set [2] shares this test system. Description: Inhibition of platelet aggregation ex vivo (rat blood). In kind it is in vivo. The procedure:
The platelet aggregation measurements are carried out at 37° C. in glass tubes (Chrono-Log aggregometer—Kordia). 4 μl of the test compound (solution 100 times more concentrated than the desired final concentration, in DMSO) are mixed with 392 μl of fresh PRP, and incubated for 1 minute with stirring. Then, 4 μl of a solution of ADP at 250 μM are added to the mixture. The aggregation measurements are monitored for 6 to 8 minutes, with constant stirring, by recording the variations in the optical density according to the method of G.V.R. BORN (Born Nature (1962) 194, 927). Inhibition of Platelet Aggregation Ex Vivo (Rat Blood) Male rats of the Sprague-Dawley strain, weighing 250-300 g, are used in a proportion of 6 animals per batch. Each test compound is diluted in a glucose solution (5% glucose) containing 5% of cremophor and 3% of glycofurol. […] The sample is taken on 3.8% sodium citrate (1 volume for 9 blood volumes) by abdominal aortic puncture after the animal has been anesthetized with sodium pentobarbital. The platelet-rich plasma (PRP) is obtained by centrifugation of the blood at 300 g for 5 minutes, and the platelet aggregation measurements are carried out as described above. The results are calculated using the area under the curve of absorbance measured for 6 minutes, and expressed by the percentage (%) inhibition.

Data set [3] concerns platelet aggregation (human blood, platelet-rich plasma). Description: Inhibition of platelet aggregation in vitro (human blood). In kind it is cell-based. The following applies: human PRP from healthy volunteers, ADP-induced, size of aggregation as height. The procedure:
Inhibition of Platelet Aggregation In Vitro (Human Blood) Blood is taken from healthy volunteers, using 20 ml syringes containing 2 ml of buffered sodium citrate. The blood is transferred into polypropylene tubes and centrifuged for 5 minutes (100 g) at ambient temperature (without using the brake of the centrifuge). The platelet-rich plasma (PRP) supernatant is then removed, diluted, and counted for platelets before being used in the aggregation measurements. The platelet aggregation measurements are carried out at 37° C. in glass tubes (Chrono-Log aggregometer—Kordia). 4 μl of the test compound (solution 100 times more concentrated than the desired final concentration, in DMSO) are mixed with 392 μl of fresh PRP, and incubated for 1 minute with stirring. Then, 4 μl of a solution of ADP at 250 μM are added to the mixture. The aggregation measurements are monitored for 6 to 8 minutes, with constant stirring, by recording the variations in the optical density according to the method of G.V.R. BORN (Born Nature (1962) 194, 927). The results are calculated using the size of the aggregation expressed as height, and expressed by the percentage inhibition.

Where [4] appears, read: oral gavage, t = 2 h after administration, read-out: Inhibition of platelet aggregation ex vivo (rat blood), Gavage (oral).

Counter-ions that a name gives are not always drawn. Like-named read-outs stand apart in the source and are kept apart here.

What is called melting point is the temperature, or range, at which the solid turns liquid. With `CCCC(=O)c1cnn([C@H]2CC[C@H](NC(=O)c3cn(CC(=O)N4CCN(CCOC)CC4)c4ccc(Cl)cc34)CC2)c1C` (as salt: hydrochloride) [Compound 2, 5-Chloro-1-{2-[4-(2-methoxyethyl)piperazin-1-yl]-2-oxoethyl}-1H-indole-3-carboxylic acid [4-(4-butyryl-5-methylpyrazol-1-yl)cyclohexyl]-amide hydrochloride], the melting point was found to be 263 °C.

For the compound `CCCC(=O)c1cnn([C@H]2CC[C@H](NC(=O)c3cn(CC(=O)N4CCN(CCC(F)(F)F)CC4)c4ccc(Cl)cc34)CC2)c1C` (as salt: hydrochloride) [Compound 3, 5-Chloro-1-{2-oxo-2-[4-(3,3,3-trifluoropropyl)piperazin-1-yl]ethyl}-1H-indole-3-carboxylic acid [4-(4-butyryl-5-methylpyrazol-1-yl)cyclohexyl]amide hydrochloride], the melting point came out at 249 °C.

One may read the IC50 as the concentration at which inhibition is half-maximal. By inhibition is commonly meant the share of the control response that was lost under treatment. For `CCCC(=O)c1cnn([C@H]2CC[C@H](NC(=O)c3cn(CC(=O)N4CCN(C)CC4)c4ccc(Cl)cc34)CC2)c1C` [Compound 1, 5-Chloro-1-[2-(4-methylpiperazin-1-yl)-2-oxoethyl]-1H-indole-3-carboxylic acid [4-(4-butyryl-5-methyl-pyrazol-1-yl)-cyclohexyl]amide hydrochloride], the IC50 was found to be 91 nM in data set [1] and 270 nM in data set [3]. Also, the inhibition at 3 mg/kg in data set [2] (0.5 h, intravenous infusion, 30 min after administration, read-out: Inhibition of platelet aggregation ex vivo (rat blood), Infusion (Intravenous)) was 79 ± 5%; in data set [2] (setting [4]) it was 42.8 ± 10.7%.

With `CCCC(=O)c1cnn([C@H]2CC[C@H](NC(=O)c3cn(CC(=O)N4CCN(CCOC)CC4)c4ccc(Cl)cc34)CC2)c1C` [Compound 2, 5-Chloro-1-{2-[4-(2-methoxyethyl)piperazin-1-yl]-2-oxoethyl}-1H-indole-3-carboxylic acid [4-(4-butyryl-5-methylpyrazol-1-yl)cyclohexyl]-amide hydrochloride], in data set [1], the IC50 came out at 80 nM.

For `CCCC(=O)c1cnn([C@H]2CC[C@H](NC(=O)c3cn(CC(=O)N4CCN(CCC(F)(F)F)CC4)c4ccc(Cl)cc34)CC2)c1C` [Compound 3, 5-Chloro-1-{2-oxo-2-[4-(3,3,3-trifluoropropyl)piperazin-1-yl]ethyl}-1H-indole-3-carboxylic acid [4-(4-butyryl-5-methylpyrazol-1-yl)cyclohexyl]amide hydrochloride], the IC50 in data set [1] was 294 nM.

Turning to `CCCC(=O)c1cnn(C2CCN(NC(=O)c3cn(CC(=O)N4CCN(C)CC4)c4ccc(Cl)cc34)CC2)c1C` [Compound 4, 5 -Chloro-1-[2-(4-methylpiperazin-1-yl)-2-oxoethyl]-1H-indole-3-carboxylic acid [4-(4-butyryl-5-methylpyrazol-1-yl)piperidin-1-yl]amide hydrochloride], the values for the IC50 in data set [1] and in data set [3] were 43 nM and 25 nM, respectively. In addition, testing at 1 mg/kg in data set [2] (intravenous infusion, dose 1 mg/kg, t = 2 h after administration) gave an inhibition of 88 ± 5%. Moreover, the inhibition at 3 mg/kg in data set [2] (setting [4]) was determined as 72 ± 15%.

In data set [1], `CCCC(=O)c1cnn(C2CCN(NC(=O)c3cn(CC(=O)N4CCN(CCOC)CC4)c4ccc(Cl)cc34)CC2)c1C` [Compound 5, 5-Chloro-1-{2-[4-(2-methoxyethyl)piperazin-1-yl]-2-oxoethyl}-1H-indole-3-carboxylic acid [4-(4-butyryl-5-methylpyrazol-1-yl-piperidin-1-yl]amide hydrochloride] returned an IC50 of 17 nM.

Turning to `CCCC(=O)c1cnn(C2CCN(NC(=O)c3cn(CC(=O)N4CCN(CCOC(F)(F)F)CC4)c4ccc(Cl)cc34)CC2)c1C` [Compound 6, 5-Chloro-1-{2-oxo-2-[4-(2-trifluoromethoxyethyl)piperazin-1-yl]ethyl}-1H-indole-3-carboxylic acid [4-(4-butyryl-5-methylpyrazol-1-yl)piperidin-1-yl]amide hydrochloride], in data set [1], the IC50 stood at 46 nM.
